Reference: US20240109914A1, “IMIDAZOTHIAZOLE COMPOUNDS AND ANALOGS THEREOF AND METHODS FOR TREATING NEMATODE INFECTIONS IN PLANTS” (The Governing Council of The University of Toronto, priority 2021, published 2024)
Like-named read-outs stand apart in the source and are kept apart here.

Legend:
C. elegans = C. elegans dose-response (viability, minimum lethal concentration); type: in vivo, Caenorhabditis elegans; settings: Caenorhabditis elegans, 72 h, L1 worms, 3 days at 20° C.
Method: Forty microliters of an HB101 E. coli bacterial suspension in liquid NGM (nematode growth media—see ref. 42 for the recipe) was added to each well of a 96-well flat-bottom culture plate, after which approximately 25 synchronized L1 worms, in 10 μl of M9 buffer (see ref. 43 for the recipe), were added to each well. The synchronized L1 worms were obtained from an embryo preparation performed the previous day (see ref. 43 for the protocol). For the L1 assays, 0.5 μl of test compound solution (or DMSO alone) was immediately added to the wells using a multichannel pipette; the final DMSO concentration is 1% (v/v). The worms were incubated for 3 days at 20° C. and the number of viable animals was counted.
At least three biological replicates were performed for each dose-response assay. For each biological replicate, two technical replicates were performed and the numbers of viable animals for each technical replicate were combined (i.e. ˜ 50 worms assayed per concentration). The number of viable worms at each concentration was divided by the corresponding DMSO control value to give the “relative viability” for each concentration. The “relative viability” values were then averaged across the biological replicates. Minimum lethal concentration was defined as the lowest concentration at which at least 20% of worms die.

tomato plants = assay: Root mass of tomato plants in the soil infectivity assay; settings: 45 μM in soil, 8 weeks
Method: For the infectivity assays, 90 grams of soil (1:1 sand:loam mix) was added to each cell of several 6-cell plastic garden packs. The soil was drenched with 18 mL of deionized water containing dissolved test compound or DMSO alone. 2,500 infective J2 juveniles were then added to the soil in 2 mL of deionized water, for a total water volume of 20 mL. […] The DMSO concentration varied from 0.1% to 0.8% (v/v) depending on the stock concentration of the test compound. The highest DMSO concentration was used as the DMSO control. The J2s were incubated in the soil and chemical for 24 hours, after which two- to three-week old tomato seedlings were transplanted into the soil (one plant per cell). Two replicates were performed for each chemical treatment, and four replicates were done for the DMSO controls. The whole experiment was replicated twice, in two different batches on two different days, for a total of four replicates for each test compound treatment, and eight replicates for the DMSO controls. Inoculated plants were grown for 8 weeks in a greenhouse, as described^47, under long-day conditions (16-h photoperiod) with 26/18° C. day/night temperatures. After 8 weeks, the plants were destructively harvested. The tops were removed and discarded, and roots were gently washed with water to remove adhering soil. Eggs were extracted by placing rinsed roots in 0.6% sodium hypochlorite and agitating at 300 rpm for 3 min. Roots were then rinsed over nested 250—and 25.4-μm sieves, with eggs collected from the latter and suspended in water. Roots were dried in a 65° C. oven for at least 24 hours, after which dry roots were weighed. The number of eggs from each plant root was counted on a dissection microscope using a haemocytometer, and the number of eggs per milligram of root was calculated by dividing the total egg number by the mass of the dried root material. An average was taken across the replicates performed on the same day, and then normalized to the DMSO control average. […] An average percent effectiveness value was then calculated across the two different batches carried out on different days.

M. hapla eggs = assay: Meloidogyne hapla in vitro egg hatch assay; type: in vivo; settings: 45 μM; for Number of Hatched Eggs: 8 days at room temperature, about 90 eggs per well, tested once; for Number of Hatched Eggs z-score: 8 days, z-score vs 8 untreated DMSO wells
Method: The M. hapla were originally obtained from a soil sample of muck soil from Ste-Clotilde, Quebec, Canada. Using tweezers, egg masses were carefully removed from root material from infested carrot roots. Eggs were liberated from the egg masses using a mild sodium hypochlorite bleaching protocol, whereby egg masses were bleached with a 10% commercial bleach (sodium hypochlorite) solution for 4 minutes with vigorous shaking, and then washed 5 times with deionized water. 50 μL of deionized water was added to each well of two 96-well polystyrene culture plates, and 0.5 μL of chemical (or DMSO alone) was added to each well. Approximately 90 eggs were added to each well in 49.5 ul of deionized water. The plates were sealed with parafilm and incubated for 8 days at room temperature without shaking in a Tupperware box filled with wet paper towels. After the 8-day incubation, the number of hatched eggs was counted for each treatment and for the untreated controls. Each chemical treatment was tested only once. 8 separate untreated DMSO controls were included in the experiment. The z-score for each treatment was calculated using the mean and standard deviation of the untreated DMSO control wells.

M. incognita = assay: Meloidogyne incognita infectivity assay (soil, tomato roots); type: in vivo; settings: Meloidogyne incognita, 1344 h, 45 μM in soil, 8 weeks, eggs per mg root relative to DMSO control, read-out: % effectiveness at inhibiting reproduction of M. incognita
Source text: An M. incognita population originally collected from grape (Vitis vinifera) in Parlier, California, was used for all experiments, and they were maintained on tomato plants (Solanum lycopersicum ‘Rutgers’) as previously described^47. Infective J2 juveniles were collected as described in ref. 47.

M. incognita J2 larvae = assay: Meloidogyne incognita in vitro larval mobility assay; type: in vivo; settings: 45 μM, 4 days; for Replicate 1 z-score / Replicate 2 z-score: z-score vs untreated DMSO wells; for pest or weed control at 45 µM: Meloidogyne incognita, 96 h
Method: M. incognita (Kofoid & White) Chitwood Race 1 (originally isolated in Maryland) was used for all experiments, and was maintained on pepper (Capsicum annuum L.) cv. PA-136 in a greenhouse as previously described^44. Infective J2 juveniles were collected as described in ref. 45. The microwell dose-response experiments were carried out similarly to previously described protocols^44,46. In brief, 50 μL of deionized water was added to the wells of 96-well polystyrene plates and 0.5 μL of test compound (or DMSO alone) was added to each well. Approximately 35 J2s were then added to each well in 49.5 μL of deionized water. The chemicals were tested at 45 μM, and the final concentration of DMSO in each well was 0.5% (v/v). DMSO alone was added to 3 separate wells. The plates were covered with plastic adhesive strips, and the lids of the plates were sealed with parafilm. The plates were incubated at 25° C. without shaking for 4 days. The percent of worms that were immobile (% immobile) was quantified by counting the number of immobile worms after 4 days of incubation, dividing the number of immobile worms by the total number of worms in the well, and then multiplying by 100. Two replicates were performed for each treatment. The z-score for each treatment was calculated using the mean and standard deviation of the untreated DMSO control wells. The average % immobile value was calculated across the two replicates. A test compound was considered most promising if the z-score was greater than 1.645 in both replicates.

[1] = lowest concentration at which at least 20% of worms die, read-out: Minimum Lethal Concentration
[2] = same values in ppm, read-out: Minimum Lethal Concentration (ppm)
[3] = average of the two replicates, read-out: Average % Immobile
[4] = replicate 1, read-out: Replicate 1 % Immobile
[5] = replicate 2, read-out: Replicate 2 % Immobile

SMILES	minimal effective concentration (C. elegans; [1])	minimal effective concentration (C. elegans; [2])	Normalized root mass (relative to DMSO control) (tomato plants)	Number of Hatched Eggs (M. hapla eggs)	Number of Hatched Eggs z-score (M. hapla eggs)	pest or weed control at 45 µM (M. incognita)	Replicate 1 z-score (M. incognita J2 larvae; replicate 1)	Replicate 2 z-score (M. incognita J2 larvae; replicate 2)	pest or weed control at 45 µM (M. incognita J2 larvae; [3])	pest or weed control at 45 µM (M. incognita J2 larvae; [4])	pest or weed control at 45 µM (M. incognita J2 larvae; [5])
Cc1c(-c2cccc(Br)c2)nc2sccn12 [I-35]	> 50 µM	14.7 µg/mL	1.26	2	[3.97]	10.2%					
Cc1cn2cc(-c3ccccc3F)nc2s1 [I-21]	50 µM	11.6 µg/mL	1.24			24.4%	[5.78]	[5.62]	45.9%	51%	40.8%
Fc1ccccc1-c1cn2ccsc2n1 [I-18]			1.13			0%					
Cc1c(-c2cccc(F)c2)nc2sccn12 [I-15]	> 100 µM	> 23.2 µg/mL	1.35			5.8%					
Brc1cccc(-c2cn3ccsc3n2)c1 [I-34]	50 µM	14 µg/mL		1	[4.30]		[15.00]	[14.11]	≥ 75%	96.1%	87.8%
Cc1csc2nc(-c3cccc(Cl)c3)cn12 [I-25]	> 100 µM	> 24.9 µg/mL	1.27	4	[3.31]	24.6%					
Brc1ccccc1-c1cn2ccsc2n1 [I-38]	100 µM	27.9 µg/mL	1.21			0%					
Cc1c(-c2ccccc2F)nc2sccn12 [I-19]	> 100 µM	> 23.2 µg/mL	1.27			16.6%					
Cc1cn2cc(-c3ccccc3Cl)nc2s1 [I-30]	> 100 µM	> 24.9 µg/mL	1.30			16%	[8.34]	[5.62]	52.1%	63.5%	40.8%
Cc1csc2nc(-c3cccc(F)c3)cn12 [I-16]	> 100 µM	> 23.2 µg/mL	1.15			0%					
Clc1cccc(-c2cn3ccsc3n2)c1 [I-23]	100 µM	23.5 µg/mL		1	[4.30]		[14.66]	[13.61]	≥ 75%	94.4%	85%
CCc1cccc(-c2cn3ccsc3n2)c1 [I-11]	100 µM	22.8 µg/mL		3	[3.64]						
Cc1c(-c2ccccc2Cl)nc2sccn12 [I-28]	> 100 µM	> 24.9 µg/mL	1.37			17.4%					
Cc1cn2cc(-c3ccccc3Br)nc2s1 [I-41]	> 100 µM	> 29.3 µg/mL	1.18			6.6%	[3.31]	[6.62]	42.6%	38.9%	46.3%
Cc1cn2cc(-c3cccc(Cl)c3)nc2s1 [I-26]	25 µM	6.2 µg/mL	1.43			0%	[6.47]	[1.92]	37.4%	54.4%	20.4%
Cc1c(-c2cccc(Cl)c2)nc2sccn12 [I-24]	100 µM	24.9 µg/mL	1.34			23.6%	[1.68]	[4.78]	33.6%	30.9%	36.2%
Cc1cn2cc(-c3cccc(Br)c3)nc2s1 [I-37]	> 100 µM	> 29.3 µg/mL	1.31			21.6%					
Clc1ccc(-c2cn3ccsc3n2)c(Cl)c1 [I-32]	6.25 µM	1.7 µg/mL	1.31			4.4%					
Ic1ccccc1-c1cn2ccsc2n1 [I-43]	50 µM	16.3 µg/mL		4	[3.31]						
